# Reference: the supplement of paper PMC9013687
# ± gives the standard deviation of the averaged measurements.
# What was measured:
# Danio rerio embryo [1] = experiment: EC20 Eye-jaw distance_Decrease; higher = less potent; conditions: exposure time: 4 dpf
# Experimental: (§1)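 Zebrafish embryos (UFZ-OBI strain) were exposed from 2 hpf for 48 h (2 dpf) or 96 h (4 dpf) at 28 °C; spontaneous tail coiling was scored at 25 hpf. Morphological features from automated image analysis (FishInspector), heart rate and locomotor response were fitted with drc models. Quantal endpoints were dichotomised at 2.5 SD from controls and fitted with a log-logistic model; heart rate, pigmentation and STC were normalised to the replicate control mean. Betamethasone was tested as betamethasone dipropionate, diflorasone as diflorasone diacetate.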
# Danio rerio embryo [2] = experiment: EC20 Curvature_Increase; higher = less potent
# Experimental: as §1
# Danio rerio embryo [3] = experiment: EC20 LMR dark; higher = less potent; conditions: exposure time: 4 dpf
# Experimental: as §1
# Danio rerio embryo [4] = experiment: EC50 Body length_Decrease
# Experimental: as §1
# Danio rerio embryo [5] = experiment: EC20 Any effect; higher = less potent
# Experimental: as §1
# Danio rerio embryo [6] = experiment: EC10 Body length_Decrease; higher = less potent
# Experimental: as §1
# Danio rerio embryo [7] = experiment: EC20 Otolith-eye distance_Decrease; higher = less potent; conditions: exposure time: 4 dpf
# Experimental: as §1
# Danio rerio embryo [8] = experiment: EC10 Yolk sac size_Increase; higher = less potent; conditions: exposure time: 4 dpf
# Experimental: as §1
# Danio rerio embryo [9] = system: Danio rerio embryo
# Experimental: as §1
# Danio rerio embryo [10] = experiment: EC10 Curvature_Increase; higher = less potent
# Experimental: as §1
# Danio rerio embryo [11] = experiment: EC10 Any effect; higher = less potent
# Experimental: as §1
# Danio rerio embryo [12] = experiment: EC10 Bladder size_Decrease; higher = less potent; conditions: exposure time: 4 dpf
# Experimental: as §1
# Danio rerio embryo [13] = experiment: EC10 Pericard size_Increase; higher = less potent
# Experimental: as §1
# Danio rerio embryo [14] = experiment: EC10 Otolith-eye distance_Decrease; higher = less potent; conditions: exposure time: 4 dpf
# Experimental: as §1
# Danio rerio embryo [15] = experiment: EC50 Eye-jaw distance_Decrease; conditions: exposure time: 4 dpf
# Experimental: as §1
# Danio rerio embryo [16] = experiment: EC10 LMR dark; higher = less potent; conditions: exposure time: 4 dpf
# Experimental: as §1
# Danio rerio embryo [17] = experiment: EC20 Yolk sac size_Increase; higher = less potent; conditions: exposure time: 4 dpf
# Experimental: as §1
# Danio rerio embryo [18] = experiment: EC50 Yolk sac size_Increase; conditions: exposure time: 4 dpf
# Experimental: as §1
# Danio rerio embryo [19] = conditions: exposure time: 4 dpf
# Experimental: as §1
# Danio rerio embryo [20] = experiment: EC20 Bladder size_Decrease; higher = less potent; conditions: exposure time: 4 dpf
# Experimental: as §1
# Danio rerio embryo [21] = experiment: EC50 Otolith-eye distance_Decrease; conditions: exposure time: 4 dpf
# Experimental: as §1
# Danio rerio embryo [22] = experiment: EC50 Bladder size_Decrease; conditions: exposure time: 4 dpf
# Experimental: as §1
# Danio rerio embryo [23] = experiment: spontaneous tail coiling frequency (coils/min/embryo); higher = more spontaneous movement; conditions: 25 hpf
# Experimental: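 Spontaneous tail coilings of zebrafish embryos exposed from 2 hpf were recorded at 24-25 hpf in 1-min videos and detected by a KNIME workflow from grey-value variance. Betamethasone was tested as the dipropionate, diflorasone as the diacetate.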
# Danio rerio embryo [24] = experiment: EC20 Pericard size_Increase; higher = less potent
# Experimental: as §1
# Danio rerio embryo [25] = experiment: EC10 Eye-jaw distance_Decrease; higher = less potent; conditions: exposure time: 4 dpf
# Experimental: as §1
# Danio rerio embryo [26] = experiment: EC50 Pericard size_Increase
# Experimental: as §1
# Danio rerio embryo [27] = experiment: EC20 Body length_Decrease; higher = less potent
# Experimental: as §1
# Danio rerio embryo [28] = experiment: EC50 Curvature_Increase
# Experimental: as §1
smiles,measurement,setting,value
Cc1ccc(-c2cc(C(F)(F)F)nn2-c2ccc(S(N)(=O)=O)cc2)cc1 [Celecoxib],EC20 Eye-jaw distance Decrease,Danio rerio embryo [1],11.8 µM
same,EC20 Curvature Increase,Danio rerio embryo [2]; exposure time: 2 dpf,30.5 µM
same,EC20 Curvature Increase,Danio rerio embryo [2]; exposure time: 4 dpf,15 µM
same,EC20 LMR dark,Danio rerio embryo [3],9.94 µM
same,EC50 Body length Decrease,Danio rerio embryo [4]; exposure time: 2 dpf,25.2 µM
same,EC50 Body length Decrease,Danio rerio embryo [4]; exposure time: 4 dpf,13.6 µM
same,EC20 Any effect,Danio rerio embryo [5]; exposure time: 2 dpf,7.05 µM
same,EC20 Any effect,Danio rerio embryo [5]; exposure time: 4 dpf,2.94 µM
same,EC10 Body length Decrease,Danio rerio embryo [6]; exposure time: 2 dpf,20.1 µM
same,EC10 Body length Decrease,Danio rerio embryo [6]; exposure time: 4 dpf,8.57 µM
same,EC20 Otolith-eye distance Decrease,Danio rerio embryo [7],16.8 µM
same,EC10 Yolk sac size Increase,Danio rerio embryo [8],8.88 µM
same,EC50 Any effect,Danio rerio embryo [9]; exposure time: 2 dpf,13.9 µM
same,EC50 Any effect,Danio rerio embryo [9]; exposure time: 4 dpf,8.13 µM
same,EC50 STC bell shape,Danio rerio embryo [9]; exposure time: 25 h,32.2 µM
same,EC10 Curvature Increase,Danio rerio embryo [10]; exposure time: 2 dpf,29.8 µM
same,EC10 Curvature Increase,Danio rerio embryo [10]; exposure time: 4 dpf,12.3 µM
same,EC10 Any effect,Danio rerio embryo [11]; exposure time: 2 dpf,4.74 µM
same,EC10 Any effect,Danio rerio embryo [11]; exposure time: 4 dpf,1.62 µM
same,EC10 Bladder size Decrease,Danio rerio embryo [12],7.91 µM
same,EC10 Pericard size Increase,Danio rerio embryo [13]; exposure time: 2 dpf,4.26 µM
same,EC10 Pericard size Increase,Danio rerio embryo [13]; exposure time: 4 dpf,7.87 µM
same,EC10 Otolith-eye distance Decrease,Danio rerio embryo [14],14.6 µM
same,EC50 Eye-jaw distance Decrease,Danio rerio embryo [15],15.9 µM
same,EC10 LMR dark,Danio rerio embryo [16],8.51 µM
same,EC20 Yolk sac size Increase,Danio rerio embryo [17],11.4 µM
same,EC50 Yolk sac size Increase,Danio rerio embryo [18],17.6 µM
same,EC50 LMR dark,Danio rerio embryo [19],13 µM
same,EC20 Bladder size Decrease,Danio rerio embryo [20],8.23 µM
same,EC50 Otolith-eye distance Decrease,Danio rerio embryo [21],21.4 µM
same,EC50 Bladder size Decrease,Danio rerio embryo [22],8.8 µM
same,spontaneous tail coiling frequency,Danio rerio embryo [23]; 5 µM,2.65 ± 1.1
same,spontaneous tail coiling frequency,Danio rerio embryo [23]; 8.3 µM,2.21
same,spontaneous tail coiling frequency,Danio rerio embryo [23]; 10 µM,2.87
same,spontaneous tail coiling frequency,Danio rerio embryo [23]; 16.5 µM,2.73
same,spontaneous tail coiling frequency,Danio rerio embryo [23]; 17.5 µM,1.93
same,spontaneous tail coiling frequency,Danio rerio embryo [23]; 24.8 µM,2.06
same,spontaneous tail coiling frequency,Danio rerio embryo [23]; 25 µM,2.15
same,spontaneous tail coiling frequency,Danio rerio embryo [23]; 32.5 µM,1.08
same,spontaneous tail coiling frequency,Danio rerio embryo [23]; 33 µM,1.78
same,spontaneous tail coiling frequency,Danio rerio embryo [23]; 40 µM,0.12
same,EC20 Pericard size Increase,Danio rerio embryo [24]; exposure time: 2 dpf,6.48 µM
same,EC20 Pericard size Increase,Danio rerio embryo [24]; exposure time: 4 dpf,9.76 µM
same,EC10 Eye-jaw distance Decrease,Danio rerio embryo [25],9.89 µM
same,EC50 Pericard size Increase,Danio rerio embryo [26]; exposure time: 2 dpf,13.3 µM
same,EC50 Pericard size Increase,Danio rerio embryo [26]; exposure time: 4 dpf,14.1 µM
same,EC20 Body length Decrease,Danio rerio embryo [27]; exposure time: 2 dpf,21.9 µM
same,EC20 Body length Decrease,Danio rerio embryo [27]; exposure time: 4 dpf,10.2 µM
same,EC50 Curvature Increase,Danio rerio embryo [28]; exposure time: 2 dpf,31.6 µM
same,EC50 Curvature Increase,Danio rerio embryo [28]; exposure time: 4 dpf,21.1 µM
